Biological target: FGFR3 enzyme (Millipore) (Homo sapiens (Human), UniProt P22607)
Test: FGFR3 Enzymatic Assay (peptide phosphorylation, FRET/HTRF)
Assay type: biochemical
Settings: 140 μM ATP, 25° C. 1 hr
Experimental: FGFR3 Enzymatic Assay The inhibitor potency of compounds of the invention was measured in an enzyme assay that measures peptide phosphorylation using FRET measurements to detect product formation. Inhibitors were serially diluted in DMSO and a volume of 0.5 μL was transferred to the wells of a 384-well plate. A 10 μL volume of FGFR3 enzyme (Millipore) diluted in assay buffer (50 mM HEPES, 10 mM MgCl2, 1 mM EGTA, 0.01% Tween-20, 5 mM DTT, pH 7.5) was added to the plate and pre-incubated for 5-10 minutes. Appropriate controls (enzyme blank and enzyme with no inhibitor) were included on the plate. […] The plate was incubated at 25° C. for 1 hr. […] The plate was allowed to equilibrate for ˜1 hr before scanning the wells on a PheraStar plate reader.
GraphPad prism3 was used to analyze the data. The IC50 values were derived by fitting the data to the equation for a sigmoidal dose-response with a variable slope. Y=Bottom+(Top-Bottom)/(1+10^(Log IC50−X)*HillSlope)) where X is the logarithm of concentration and Y is the response.

FGFR3 enzyme (Millipore), sequence (P22607 23-806): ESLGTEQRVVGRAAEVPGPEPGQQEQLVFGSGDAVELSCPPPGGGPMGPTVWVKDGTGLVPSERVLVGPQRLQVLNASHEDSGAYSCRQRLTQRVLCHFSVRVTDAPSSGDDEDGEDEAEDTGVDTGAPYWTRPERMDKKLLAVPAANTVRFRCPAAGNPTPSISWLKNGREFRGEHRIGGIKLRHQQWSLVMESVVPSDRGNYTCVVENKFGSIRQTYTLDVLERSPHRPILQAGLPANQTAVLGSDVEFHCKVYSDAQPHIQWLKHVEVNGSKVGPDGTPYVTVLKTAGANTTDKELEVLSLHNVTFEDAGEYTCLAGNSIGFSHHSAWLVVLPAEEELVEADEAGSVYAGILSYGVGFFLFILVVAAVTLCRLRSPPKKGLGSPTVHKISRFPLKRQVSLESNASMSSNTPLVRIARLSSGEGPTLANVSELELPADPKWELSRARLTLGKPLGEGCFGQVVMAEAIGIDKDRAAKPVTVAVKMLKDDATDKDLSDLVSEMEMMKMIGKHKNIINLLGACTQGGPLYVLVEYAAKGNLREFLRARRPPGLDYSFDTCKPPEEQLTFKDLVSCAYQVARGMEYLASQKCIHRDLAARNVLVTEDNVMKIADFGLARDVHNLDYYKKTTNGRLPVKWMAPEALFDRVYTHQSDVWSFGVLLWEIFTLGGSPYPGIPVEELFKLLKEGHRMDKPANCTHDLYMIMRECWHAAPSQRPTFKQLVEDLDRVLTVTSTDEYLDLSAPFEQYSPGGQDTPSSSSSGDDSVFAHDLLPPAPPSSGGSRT

IC50, < 10 nM:
CC(C(=O)N1CCC(F)(F)C1)n1cc(-c2cnn3c(-c4cccc(NC(=O)NCC(F)(F)F)c4)cnc3c2)cn1 (stereo not shown) [Example 65, N-[3-(7-{1-[2-(3,3-Difluoropyrrolidin-1-yl)-1-methyl-2-oxoethyl]-1H-pyrazol-4-yl}imidazo[1,2-b]pyridazin-3-yl)phenyl]-N′-(2,2,2-trifluoroethyl)urea]
CC(O)CNC(=O)C(C)n1cc(-c2cnn3c(-c4cccc(NC(=O)NCC(F)(F)F)c4)cnc3c2)cn1 (stereo not shown) [Example 63, N-(2-Hydroxypropyl)-2-(4-{3-[3-({[(2,2,2-trifluoroethyl)amino]carbonyl}amino)phenyl]imidazo[1,2-b]pyridazin-7-yl}-1H-pyrazol-1-yl)propanamide]
N#CCC1(n2cc(-c3cnn4c(-c5cccc(NC(=O)NCC(F)(F)F)c5)cnc4c3)cn2)CN(C(=O)NCC2CC2)C1 [Example 87, 3-(Cyanomethyl)-N-(cyclopropylmethyl)-3-(4-{3-[3-({[(2,2,2-trifluoroethyl)amino]carbonyl}amino)phenyl]imidazo[1,2-b]pyridazin-7-yl}-1H-pyrazol-1-yl)azetidine-1-carboxamide]
N#CCC1(n2cc(-c3cnn4c(-c5cccc(NC(=O)NCC(F)(F)F)c5)cnc4c3)cn2)CN(C(=O)C2(C#N)CC2)C1 [Example 80, N-[3-(7-{1-[1-[(1-Cyanocyclopropyl)carbonyl]-3-(cyanomethyl)azetidin-3-yl]-1H-pyrazol-4-yl}imidazo[1,2-b]pyridazin-3-yl)phenyl]-N′-(2,2,2-trifluoroethyl)urea]
N#CCC1(n2cc(-c3cnn4c(-c5cccc(NC(=O)NCC(F)(F)F)c5)cnc4c3)cn2)CN(C(=O)CC2CCCO2)C1 (stereo not shown) [Example 81, N-[3-(7-{1-[3-(Cyanomethyl)-1-(tetrahydrofuran-2-ylacetyl)azetidin-3-yl]-1H-pyrazol-4-yl}imidazo[1,2-b]pyridazin-3-yl)phenyl]-N′-(2,2,2-trifluoroethyl)urea]
N#CCC1(n2cc(-c3cnn4c(-c5cccc(NC(=O)NCC(F)(F)F)c5)cnc4c3)cn2)CN(C(=O)OCC2CC2)C1 [Example 88, Cyclopropylmethyl 3-(cyanomethyl)-3-(4-{3-[3-({[(2,2,2-trifluoroethyl)amino]carbonyl}amino)phenyl]imidazo[1,2-b]pyridazin-7-yl}-1H-pyrazol-1-yl)azetidine-1-carboxylate]
N#CCC(=O)N1CC(CC#N)(n2cc(-c3cnn4c(-c5cccc(NC(=O)NCC(F)(F)F)c5)cnc4c3)cn2)C1 [Example 77, N-[3-(7-{1-[1-(Cyanoacetyl)-3-(cyanomethyl)azetidin-3-yl]-1H-pyrazol-4-yl}imidazo[1,2-b]pyridazin-3-yl)phenyl]-N′-(2,2,2-trifluoroethyl)urea]
CC1(C(=O)N2CC(CC#N)(n3cc(-c4cnn5c(-c6cccc(NC(=O)NCC(F)(F)F)c6)cnc5c4)cn3)C2)CC1 [Example 79, N-{3-[7-(1-{3-(Cyanomethyl)-1-[(1-methylcyclopropyl)carbonyl]azetidin-3-yl}-1H-pyrazol-4-yl)imidazo[1,2-b]pyridazin-3-yl]phenyl}-N′-(2,2,2-trifluoroethyl)urea]
CC(C(=O)N1CC(O)C1)n1cc(-c2cnn3c(-c4cccc(NC(=O)NCC(F)(F)F)c4)cnc3c2)cn1 (stereo not shown) [Example 64, N-[3-(7-{1-[2-(3-Hydroxyazetidin-1-yl)-1-methyl-2-oxoethyl]-1H-pyrazol-4-yl}imidazo[1,2-b]pyridazin-3-yl)phenyl]-N′-(2,2,2-trifluoroethyl)urea]
N#CCC1(n2cc(-c3cnn4c(-c5cccc(NC(=O)NCC(F)(F)F)c5)cnc4c3)cn2)CN(C(=O)N2CCCC2)C1 [Example 86, N-[3-(7-{1-[3-(Cyanomethyl)-1-(pyrrolidin-1-ylcarbonyl)azetidin-3-yl]-1H-pyrazol-4-yl}imidazo[1,2-b]pyridazin-3-yl)phenyl]-N′-(2,2,2-trifluoroethyl)u rea]
N#CCC1(n2cc(-c3cnn4c(-c5cccc(NC(=O)NCC(F)(F)F)c5)cnc4c3)cn2)CN(C(=O)CC2CC2)C1 [Example 78, N-[3-(7-{1-[3-(Cyanomethyl)-1-(cyclopropylacetyl)azetidin-3-yl]-1H-pyrazol-4-yl}imidazo[1,2-b]pyridazin-3-yl)phenyl]-N′-(2,2,2-trifluoroethyl)urea]
N#CCC1(n2cc(-c3cnn4c(-c5cccc(NC(=O)NCC(F)(F)F)c5)cnc4c3)cn2)CN(C(=O)N2CCOCC2)C1 [Example 85, N-[3-(7-{1-[3-(Cyanomethyl)-1-(morpholin-4-ylcarbonyl)azetidin-3-yl]-1H-pyrazol-4-yl}imidazo[1,2-b]pyridazin-3-yl)phenyl]-N′-(2,2,2-trifluoroethyl)urea]
N#CCC1(n2cc(-c3cnn4c(-c5cccc(NC(=O)NCC(F)(F)F)c5)cnc4c3)cn2)CN(C(=O)C2CCOC2)C1 (stereo not shown) [Example 82, N-[3-(7-{1-[3-(Cyanomethyl)-1-(tetrahydrofuran-3-ylcarbonyl)azetidin-3-yl]-1H-pyrazol-4-yl}imidazo[1,2-b]pyridazin-3-yl)phenyl]-N′-(2,2,2-trifluoroethyl)urea]
